Data as given in article PMC7143535, “Synthesis, Pharmacological and Structural Characterization of Novel Conopressins from Conus miliaris” (Marine Drugs, 2020).
Residues, ends and D or L forms follow the SMILES beside them.

Columns and labels:
[1] = target: zebrafish vasopressin2 receptor (ZF V2R); type: cell-based, zebrafish (Danio rerio); conditions: for EC50: read-out: Mean EC50 ZF V2R
[2] = target: T1, human vasopressin2 receptor (hV2R) (Homo sapiens, UniProt P30518); assay: cell-based
T1 construct: host or cells: COS-1

[3] = target: T2, zebrafish oxytocin/isotocin receptor (ZF oxy/isoR) (Danio rerio, UniProt E4W699); assay: cell-based; type: cell-based
T2 construct: host or cells: COS-1
T2 sequence (E4W699 1-388): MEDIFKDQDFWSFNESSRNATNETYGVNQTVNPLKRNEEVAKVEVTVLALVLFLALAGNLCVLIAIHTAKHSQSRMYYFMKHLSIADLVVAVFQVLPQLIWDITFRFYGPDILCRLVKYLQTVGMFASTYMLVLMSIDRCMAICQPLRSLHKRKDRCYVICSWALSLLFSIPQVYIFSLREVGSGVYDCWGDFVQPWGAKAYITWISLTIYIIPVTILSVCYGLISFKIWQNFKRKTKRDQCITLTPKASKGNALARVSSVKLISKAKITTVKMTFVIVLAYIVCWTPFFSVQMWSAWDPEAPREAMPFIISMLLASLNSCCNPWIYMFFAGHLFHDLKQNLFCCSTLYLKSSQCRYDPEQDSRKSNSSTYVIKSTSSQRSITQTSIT

[4] = target: T3, human vasopressin-1b receptor (hV1bR) (Homo sapiens, UniProt P47901); assay: cell-based; type: cell-based
T3 construct: host or cells: COS-1
T3 sequence (P47901 1-424): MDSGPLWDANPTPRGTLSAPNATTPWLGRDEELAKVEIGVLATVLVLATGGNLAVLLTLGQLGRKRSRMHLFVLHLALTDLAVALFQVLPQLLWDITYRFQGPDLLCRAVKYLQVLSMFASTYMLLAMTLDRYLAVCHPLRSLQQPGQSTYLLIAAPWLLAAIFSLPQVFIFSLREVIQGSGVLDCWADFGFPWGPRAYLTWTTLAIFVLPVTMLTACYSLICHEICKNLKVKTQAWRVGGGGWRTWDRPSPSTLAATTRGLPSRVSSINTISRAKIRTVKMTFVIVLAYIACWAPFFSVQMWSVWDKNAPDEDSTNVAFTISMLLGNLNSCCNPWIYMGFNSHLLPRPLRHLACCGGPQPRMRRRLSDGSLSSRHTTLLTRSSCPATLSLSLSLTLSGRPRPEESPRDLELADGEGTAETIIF

[5] = target: zebrafish vasopressin1-a1 receptor (ZF V1a1R); type: cell-based, zebrafish (Danio rerio)
[6] = target: T4, human vasopressin-1a receptor (hV1aR) (Homo sapiens, UniProt P37288); assay: cell-based
T4 construct: host or cells: COS-1

[7] = target: T5, human oxytocin receptor (hOTR) (Homo sapiens, UniProt P30559); assay: cell-based; type: cell-based
T5 construct: host or cells: COS-1
T5 sequence (P30559 1-389): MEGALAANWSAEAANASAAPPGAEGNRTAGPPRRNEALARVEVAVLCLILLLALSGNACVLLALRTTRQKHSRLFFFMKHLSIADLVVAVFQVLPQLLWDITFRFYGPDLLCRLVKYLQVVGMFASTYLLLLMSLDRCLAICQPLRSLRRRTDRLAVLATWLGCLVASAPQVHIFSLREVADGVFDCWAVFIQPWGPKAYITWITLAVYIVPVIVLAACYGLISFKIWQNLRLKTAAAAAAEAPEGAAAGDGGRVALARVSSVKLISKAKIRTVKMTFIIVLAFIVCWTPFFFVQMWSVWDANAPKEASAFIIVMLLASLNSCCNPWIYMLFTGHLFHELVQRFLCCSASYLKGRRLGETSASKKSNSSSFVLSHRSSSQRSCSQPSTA

[8] = target: zebrafish vasopressin1-a2 receptor (ZF V1a2R); type: cell-based, zebrafish (Danio rerio)

T4 sequence (P37288 whole entry): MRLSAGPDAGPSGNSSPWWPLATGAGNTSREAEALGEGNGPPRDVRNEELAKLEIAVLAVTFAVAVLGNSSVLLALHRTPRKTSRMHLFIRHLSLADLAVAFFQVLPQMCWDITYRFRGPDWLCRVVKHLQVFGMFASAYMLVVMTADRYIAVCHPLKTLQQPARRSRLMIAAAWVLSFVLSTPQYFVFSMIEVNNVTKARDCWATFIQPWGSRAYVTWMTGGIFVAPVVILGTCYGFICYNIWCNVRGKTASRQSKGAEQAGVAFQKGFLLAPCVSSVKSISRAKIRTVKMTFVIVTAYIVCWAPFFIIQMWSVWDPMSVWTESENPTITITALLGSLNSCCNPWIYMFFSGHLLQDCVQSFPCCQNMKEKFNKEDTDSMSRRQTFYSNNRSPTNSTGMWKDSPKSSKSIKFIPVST
T1 sequence (P30518 whole entry): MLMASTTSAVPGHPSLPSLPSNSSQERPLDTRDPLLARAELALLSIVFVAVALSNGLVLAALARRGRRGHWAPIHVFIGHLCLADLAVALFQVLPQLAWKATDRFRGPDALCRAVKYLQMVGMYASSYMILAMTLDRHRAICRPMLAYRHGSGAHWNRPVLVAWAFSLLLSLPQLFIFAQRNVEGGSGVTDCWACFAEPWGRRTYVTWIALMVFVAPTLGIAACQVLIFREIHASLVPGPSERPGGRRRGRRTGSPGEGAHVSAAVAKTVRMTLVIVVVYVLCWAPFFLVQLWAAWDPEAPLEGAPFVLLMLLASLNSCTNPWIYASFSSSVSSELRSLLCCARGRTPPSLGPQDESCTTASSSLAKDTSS

Structure (SMILES) | EC50 [1] | EC50 [2] | EC50 [3] | EC50 [4] | EC50 [5] | EC50 [6] | EC50 [7] | EC50 [8] | response of control at hV1b (weak and partial agonist) [4] | Selectivity ZF V2R [1] | Selectivity hV2R [2] | Selectivity ZF oxy [3] | response of control at ZF oxy/isoR (partial agonist) [3] | Selectivity hV1bR [4] | Selectivity ZF V1a1R [5] | Selectivity hV1aR [6] | response of control at hOTR (partial agonist) [7] | Selectivity ZF V1a2R [8] | response of control at ZF V1a2R (partial agonist) [8]
CC(C)C[C@@H]1NC(=O)[C@H](Cc2ccccc2)NC(=O)[C@@H](N)CSSC[C@@H](C(=O)N2CCC[C@H]2C(=O)N[C@@H](CC(=O)O)C(=O)N[C@@H](CO)C(N)=O)NC(=O)[C@H](CC(N)=O)NC(=O)CNC1=O [Con-M2am, conopressin-M2] (HELM PEPTIDE1{C.F.L.G.N.C.P.D.S.[am]}$PEPTIDE1,PEPTIDE1,1:R3-6:R3$$$V2.0) | 1.72 µM | > 100 µM | > 100 µM | > 100 µM | > 100 µM | > 100 µM | > 100 µM | > 100 µM | – | – | – | – | – | – | – | – | – | – | –
NC(=O)C[C@@H]1NC(=O)CNC(=O)[C@@H]2CCCN2C(=O)[C@H](Cc2ccccc2)NC(=O)[C@@H](N)CSSC[C@@H](C(=O)N2CCC[C@H]2C(=O)N[C@@H](CC(=O)O)C(=O)N[C@@H](CO)C(N)=O)NC1=O [Con-M1am, conopressin-M1] (HELM PEPTIDE1{C.F.P.G.N.C.P.D.S.[am]}$PEPTIDE1,PEPTIDE1,1:R3-6:R3$$$V2.0) | > 100 µM | > 100 µM | > 100 µM | 38.2 µM | – | > 100 µM | > 100 µM | > 100 µM | 26% | – | – | – | – | – | – | – | – | – | –
CC[C@H](C)[C@@H]1NC(=O)[C@H](Cc2ccccc2)NC(=O)[C@@H](N)CSSC[C@@H](C(=O)N2CCC[C@H]2C(=O)N[C@@H](CCCCN)C(=O)NCC(N)=O)NC(=O)[C@H](CC(N)=O)NC(=O)[C@H](CCCNC(=N)N)NC1=O [Con-G, conopressin-G] (HELM PEPTIDE1{C.F.I.R.N.C.P.K.G.[am]}$PEPTIDE1,PEPTIDE1,1:R3-6:R3$$$V2.0) | – | 0.3 µM | – | 0.052 µM | 0.01 µM | 0.123 µM | – | – | – | ZF V1a1R (x42.9) > ZF V1a2R (x10.3) > hV1bR (x8.8) > ZF V2R (x7.5) > hV1aR (x3.7) > hV2R (x1.5) > ZF oxy (x1.3) > hOTR | ZF V1a1R (x42.9) > ZF V1a2R (x10.3) > hV1bR (x8.8) > ZF V2R (x7.5) > hV1aR (x3.7) > hV2R (x1.5) > ZF oxy (x1.3) > hOTR | ZF V1a1R (x42.9) > ZF V1a2R (x10.3) > hV1bR (x8.8) > ZF V2R (x7.5) > hV1aR (x3.7) > hV2R (x1.5) > ZF oxy (x1.3) > hOTR | 62% | ZF V1a1R (x42.9) > ZF V1a2R (x10.3) > hV1bR (x8.8) > ZF V2R (x7.5) > hV1aR (x3.7) > hV2R (x1.5) > ZF oxy (x1.3) > hOTR | ZF V1a1R (x42.9) > ZF V1a2R (x10.3) > hV1bR (x8.8) > ZF V2R (x7.5) > hV1aR (x3.7) > hV2R (x1.5) > ZF oxy (x1.3) > hOTR | ZF V1a1R (x42.9) > ZF V1a2R (x10.3) > hV1bR (x8.8) > ZF V2R (x7.5) > hV1aR (x3.7) > hV2R (x1.5) > ZF oxy (x1.3) > hOTR | 28% | ZF V1a1R (x42.9) > ZF V1a2R (x10.3) > hV1bR (x8.8) > ZF V2R (x7.5) > hV1aR (x3.7) > hV2R (x1.5) > ZF oxy (x1.3) > hOTR | 69%
